Results published in patent US12371454B2, “Cyclic peptide compound having Kras inhibitory action” (priority 2019, dated 2025).
Positions of bridges follow the written chain, without caps; N, C: chain ends. Non-standard residues stand in square brackets, D forms with d. Residues, ends and D or L forms follow the SMILES beside them. *: point of attachment. hPhe(3-Cl-4-CF3) = N[C@@H](CCc1ccc(C(F)(F)F)c(Cl)c1)C(=O)O; NEtPhe(4-Me) = CCN[C@@H](Cc1ccc(C)cc1)C(=O)O; NMeAbu(4,4,4-F3) = CN[C@@H](CC(F)(F)F)C(=O)O; NMeAla(cPent) = CN[C@@H](CC1CCCC1)C(=O)O; NMeNva(5,5-F2) = CN[C@@H](CCC(F)F)C(=O)O; NMeGly(cPent) = CN[C@H](C(=O)O)C1CCCC1; NMeCha = CN[C@@H](CC1CCCCC1)C(=O)O; NMehLeu = CN[C@@H](CCC(C)C)C(=O)O; NMeAhp(2) = CCCCC[C@H](NC)C(=O)O; NMeCba = CN[C@@H](CC1CCC1)C(=O)O; NMeChg = CN[C@H](C(=O)O)C1CCCCC1; NMeD = CN[C@@H](CC(=O)O)C(=O)O; NMeL = CN[C@@H](CC(C)C)C(=O)O; NMeNle = CCCC[C@H](NC)C(=O)O; NMeV = CN[C@H](C(=O)O)C(C)C; d(β3hA) = C[C@@H](N)CC(=O)O; NMeS = CN[C@@H](CO)C(=O)O; NMeA = CN[C@@H](C)C(=O)O; Piperidide = C1CCN(*)CC1; Pyrrolidide = C1CCN(*)C1; Ac5c = NC1(C(=O)O)CCCC1; Aze = O=C(O)[C@@H]1CCN1; Cyclopropyl = C1CC1*; Sar = CNCC(=O)O

Legend:
[1] = molecular target: T1, Kras and SOS1 (biotin-tagged human Kras loaded with GDP, His-tagged human SOS1) (Homo sapiens, UniProt P01116, G12D); assay: Protein-protein interaction inhibition between Kras and SOS1 (KrasGl2D-SOS PPI) using AlphaScreen; assay type: binding; conditions: AlphaScreen; biotin-tagged human Kras loaded with GDP, His-tagged human SOS1; read-out: KRAS G12D-SOS PPI IC50
T1 construct: made in house; host or cells: E. coli (stated for Kras only)
Summary of the method: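 Energy transfer from nickel-chelate donor beads bound to His-SOS1 to streptavidin acceptor beads bound to biotin-Kras, expressed in E. coli and loaded with GDP after purification, was monitored. Donors were excited at 680 nm; singlet oxygen reaching acceptors gave emission read at 520-620 nm.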

[2] = tested on: Human pancreatic cancer cell line AsPC-1; assay: Measurement of AsPC-1 cell growth inhibition (AsPC-1 CGI); assay type: cell-based; conditions: 96 h
Summary of the method: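 AsPC-1 cells in 15% FBS RPMI-1640 were exposed to test compound for 96 hours at 37° C, with CellTiter-Glo as endpoint.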

T1 sequence (P01116 1-188 isoform P01116-2 G12D): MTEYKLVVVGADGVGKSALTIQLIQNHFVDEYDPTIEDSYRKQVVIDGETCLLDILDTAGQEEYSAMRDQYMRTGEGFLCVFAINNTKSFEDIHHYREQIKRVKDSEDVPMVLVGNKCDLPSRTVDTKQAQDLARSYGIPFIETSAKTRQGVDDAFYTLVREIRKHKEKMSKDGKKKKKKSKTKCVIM

| SMILES | IC50 [1] [nM] | IC50 [2] [nM] |
| --- | --- | --- |
| CC[C@H](C)[C@@H]1NC(=O)[C@H](CCC(F)F)N(C)C(=O)C[C@@H](C(=O)N2CCCCC2)N(C)C(=O)[C@H](C2CCCCC2)N(C)C(=O)C2(CCCC2)NC(=O)[C@@H]2CCCN2C(=O)[C@H](CCc2ccc(C(F)(F)F)c(Cl)c2)NC(=O)CN(C)C(=O)[C@H](CC2CCCCC2)N(C)C(=O)CN(C)C(=O)CN(C)C1=O [Compound 1700] ([NMeNva(5,5-F2)]I[Sar][Sar][NMeCha][Sar][hPhe(3-Cl-4-CF3)]P[Ac5c][NMeChg][NMeD]-Piperidide; lactam N-11) | 0.66 | 20 to 50 |
| CC[C@H](C)[C@@H]1NC(=O)[C@H](CC(F)(F)F)N(C)C(=O)C[C@@H](C(=O)N2CCCCC2)N(C)C(=O)[C@H](C2CCCCC2)N(C)C(=O)C2(CCCC2)NC(=O)[C@@H]2CCCN2C(=O)[C@H](CCc2ccc(C(F)(F)F)c(Cl)c2)NC(=O)CN(C)C(=O)[C@H](CC2CCCCC2)N(C)C(=O)CN(C)C(=O)CN(C)C1=O [Compound 1701] ([NMeAbu(4,4,4-F3)]I[Sar][Sar][NMeCha][Sar][hPhe(3-Cl-4-CF3)]P[Ac5c][NMeChg][NMeD]-Piperidide; lactam N-11) | 0.75 | 20 to 50 |
| CC[C@H](C)[C@@H]1NC(=O)[C@H](CC(F)(F)F)N(C)C(=O)C[C@@H](C(=O)N2CCCCC2)N(C)C(=O)[C@H](C(C)C)N(C)C(=O)C2(CCCC2)NC(=O)[C@@H]2CCCN2C(=O)[C@H](CCc2ccc(C(F)(F)F)c(Cl)c2)NC(=O)CN(C)C(=O)[C@H](CC2CCCCC2)N(C)C(=O)[C@@H]2CCN2C(=O)[C@H](C)N(C)C1=O [Compound 1704] ([NMeAbu(4,4,4-F3)]I[NMeA][Aze][NMeCha][Sar][hPhe(3-Cl-4-CF3)]P[Ac5c][NMeV][NMeD]-Piperidide; lactam N-11) | 6 | 100 to 500 |
| CC[C@H](C)[C@@H]1NC(=O)[C@H](CC(C)C)N(C)C(=O)C[C@@H](C(=O)N2CCCCC2)N(C)C(=O)[C@H](C(C)C)N(C)C(=O)C2(CCCC2)NC(=O)[C@@H]2CCCN2C(=O)[C@H](CCc2ccc(C(F)(F)F)c(Cl)c2)NC(=O)CN(C)C(=O)[C@H](CCC(C)C)N(C)C(=O)[C@@H]2CCN2C(=O)[C@H](C)N(C)C1=O [Compound 1709] ([NMeL]I[NMeA][Aze][NMehLeu][Sar][hPhe(3-Cl-4-CF3)]P[Ac5c][NMeV][NMeD]-Piperidide; lactam N-11) | 10 | 100 to 500 |
| CC[C@H](C)[C@@H]1NC(=O)[C@H](CC(C)C)N(C)C(=O)C[C@@H](C(=O)N2CCCC2)N(C)C(=O)[C@H](C(C)C)N(C)C(=O)C2(CCCC2)NC(=O)[C@@H]2CCCN2C(=O)[C@H](CCc2ccc(C(F)(F)F)c(Cl)c2)NC(=O)CN(C)C(=O)[C@H](CC2CCCCC2)N(C)C(=O)CN(C)C(=O)CN(C)C1=O [Compound 1711] ([NMeL]I[Sar][Sar][NMeCha][Sar][hPhe(3-Cl-4-CF3)]P[Ac5c][NMeV][NMeD]-Pyrrolidide; lactam N-11) | 0.78 | 100 to 500 |
| CC[C@H](C)[C@@H]1NC(=O)[C@H](CO)N(C)C(=O)C[C@@H](C(=O)N2CCCCC2)N(C)C(=O)[C@H](C2CCCCC2)N(C)C(=O)C2(CCCC2)NC(=O)[C@@H]2CCCN2C(=O)[C@H](CCc2ccc(C(F)(F)F)c(Cl)c2)NC(=O)CN(C)C(=O)[C@H](CC2CCCCC2)N(C)C(=O)CN(C)C(=O)CN(C)C1=O [Compound 1713] ([NMeS]I[Sar][Sar][NMeCha][Sar][hPhe(3-Cl-4-CF3)]P[Ac5c][NMeChg][NMeD]-Piperidide; lactam N-11) | 0.49 | 100 to 500 |
| CC[C@H](C)[C@@H]1NC(=O)[C@H](CC(C)C)N(C)C(=O)C[C@@H](C)NC(=O)[C@H](C2CCCC2)N(C)C(=O)C2(CCCC2)NC(=O)[C@@H]2CCCN2C(=O)[C@H](CCc2ccc(C(F)(F)F)c(Cl)c2)NC(=O)CN(C)C(=O)[C@H](Cc2ccc(C)cc2)N(CC)C(=O)[C@@H]2CCN2C(=O)[C@H](C)N(C)C1=O [Compound 1714] (cyclo([Ac5c][NMeGly(cPent)][d(β3hA)][NMeL]I[NMeA][Aze][NEtPhe(4-Me)][Sar][hPhe(3-Cl-4-CF3)]P)) | 2.3 | 50 to 100 |
| CC[C@H](C)[C@@H]1NC(=O)[C@H](CC(C)C)N(C)C(=O)C[C@@H](C(=O)N2CCCCC2)N(C)C(=O)[C@H](C(C)C)N(C)C(=O)C2(CCCC2)NC(=O)[C@@H]2CCCN2C(=O)[C@H](CCc2ccc(C(F)(F)F)c(Cl)c2)NC(=O)CN(C)C(=O)[C@H](CC2CCC2)N(C)C(=O)[C@@H]2CCN2C(=O)[C@H](C)N(C)C1=O [Compound 1716] ([NMeL]I[NMeA][Aze][NMeCba][Sar][hPhe(3-Cl-4-CF3)]P[Ac5c][NMeV][NMeD]-Piperidide; lactam N-11) | 7.9 | 100 to 500 |
| CC[C@H](C)[C@@H]1NC(=O)[C@H](C)N(C)C(=O)C[C@@H](C(=O)N2CCCC2)N(C)C(=O)[C@H](C2CCCCC2)N(C)C(=O)C2(CCCC2)NC(=O)[C@@H]2CCCN2C(=O)[C@H](CCc2ccc(C(F)(F)F)c(Cl)c2)NC(=O)CN(C)C(=O)[C@H](CC2CCCCC2)N(C)C(=O)CN(C)C(=O)CN(C)C1=O [Compound 1720] ([NMeA]I[Sar][Sar][NMeCha][Sar][hPhe(3-Cl-4-CF3)]P[Ac5c][NMeChg][NMeD]-Pyrrolidide; lactam N-11) | 0.58 | 50 to 100 |
| CC[C@H](C)[C@@H]1NC(=O)[C@H](CC(C)C)N(C)C(=O)C[C@@H](C(=O)N2CCCC2)N(C)C(=O)[C@H](C2CCCCC2)N(C)C(=O)C2(CCCC2)NC(=O)[C@@H]2CCCN2C(=O)[C@H](CCc2ccc(C(F)(F)F)c(Cl)c2)NC(=O)CN(C)C(=O)[C@H](CC2CCCCC2)N(C)C(=O)[C@@H]2CCN2C(=O)[C@H](C)N(C)C1=O [Compound 1726] ([NMeL]I[NMeA][Aze][NMeCha][Sar][hPhe(3-Cl-4-CF3)]P[Ac5c][NMeChg][NMeD]-Pyrrolidide; lactam N-11) | 0.68 | 20 to 50 |
| CC[C@H](C)[C@@H]1NC(=O)[C@H](CC(C)C)N(C)C(=O)C[C@@H](C(=O)N(C)C)N(C)C(=O)[C@H](C(C)C)N(C)C(=O)C2(CCCC2)NC(=O)[C@@H]2CCCN2C(=O)[C@H](CCc2ccc(C(F)(F)F)c(Cl)c2)NC(=O)CN(C)C(=O)[C@H](CC2CCCCC2)N(C)C(=O)[C@@H]2CCN2C(=O)[C@H](C)N(C)C1=O [Compound 1728] ([NMeL]I[NMeA][Aze][NMeCha][Sar][hPhe(3-Cl-4-CF3)]P[Ac5c][NMeV][NMeD]-NMe2; lactam N-11) | 1.2 | 50 to 100 |
| CC[C@H](C)[C@@H]1NC(=O)[C@H](CC(C)C)N(C)C(=O)C[C@@H](C(=O)N(C)C)N(C)C(=O)[C@H](C2CCCCC2)N(C)C(=O)C2(CCCC2)NC(=O)[C@@H]2CCCN2C(=O)[C@H](CCc2ccc(C(F)(F)F)c(Cl)c2)NC(=O)CN(C)C(=O)[C@H](CC2CCCCC2)N(C)C(=O)CN(C)C(=O)CN(C)C1=O [Compound 1729] ([NMeL]I[Sar][Sar][NMeCha][Sar][hPhe(3-Cl-4-CF3)]P[Ac5c][NMeChg][NMeD]-NMe2; lactam N-11) | 0.44 | 20 to 50 |
| CC[C@H](C)[C@@H]1NC(=O)[C@H](CC(C)C)N(C)C(=O)C[C@@H](C(=O)N2CCCCC2)N(C)C(=O)[C@H](C2CCCCC2)N(C)C(=O)C2(CCCC2)NC(=O)[C@@H]2CCCN2C(=O)[C@H](CCc2ccc(C(F)(F)F)c(Cl)c2)NC(=O)CN(C)C(=O)[C@H](COC2CC2)N(C)C(=O)CN(C)C(=O)CN(C)C1=O [Compound 1731] ([NMeL]I[Sar][Sar][NMeS](Cyclopropyl)[Sar][hPhe(3-Cl-4-CF3)]P[Ac5c][NMeChg][NMeD]-Piperidide; lactam N-11) | 1.9 | 100 to 500 |
| CCCCC[C@H]1C(=O)N[C@@H]([C@@H](C)CC)C(=O)N(C)CC(=O)N(C)CC(=O)N(C)[C@@H](CC2CCCCC2)C(=O)N(C)CC(=O)N[C@@H](CCc2ccc(C(F)(F)F)c(Cl)c2)C(=O)N2CCC[C@H]2C(=O)NC2(CCCC2)C(=O)N(C)[C@@H](C2CCCCC2)C(=O)N(C)[C@H](C(=O)N2CCCCC2)CC(=O)N1C [Compound 1735] ([NMeAhp(2)]I[Sar][Sar][NMeCha][Sar][hPhe(3-Cl-4-CF3)]P[Ac5c][NMeChg][NMeD]-Piperidide; lactam N-11) | 1.1 | 50 to 100 |
| CC[C@H](C)[C@@H]1NC(=O)[C@H](CC(C)C)N(C)C(=O)C[C@@H](C(=O)N2CCCCC2)N(C)C(=O)[C@H](C(C)C)N(C)C(=O)C2(CCCC2)NC(=O)[C@@H]2CCCN2C(=O)[C@H](CCc2ccc(C(F)(F)F)c(Cl)c2)NC(=O)CN(C)C(=O)[C@H](COC2CC2)N(C)C(=O)[C@@H]2CCN2C(=O)[C@H](C)N(C)C1=O [Compound 1738] ([NMeL]I[NMeA][Aze][NMeS](Cyclopropyl)[Sar][hPhe(3-Cl-4-CF3)]P[Ac5c][NMeV][NMeD]-Piperidide; lactam N-11) | 11 | 100 to 500 |
| CC[C@H](C)[C@@H]1NC(=O)[C@H](CC(C)C)N(C)C(=O)C[C@@H](C(=O)N2CCCCC2)N(C)C(=O)[C@H](C(C)C)N(C)C(=O)C2(CCCC2)NC(=O)[C@@H]2CCCN2C(=O)[C@H](CCc2ccc(C(F)(F)F)c(Cl)c2)NC(=O)CN(C)C(=O)[C@H](CC2CCCC2)N(C)C(=O)[C@@H]2CCN2C(=O)[C@H](C)N(C)C1=O [Compound 1739] ([NMeL]I[NMeA][Aze][NMeAla(cPent)][Sar][hPhe(3-Cl-4-CF3)]P[Ac5c][NMeV][NMeD]-Piperidide; lactam N-11) | 4.7 | 100 to 500 |
| CCCC[C@H]1C(=O)N[C@@H]([C@@H](C)CC)C(=O)N(C)CC(=O)N(C)CC(=O)N(C)[C@@H](CC2CCCCC2)C(=O)N(C)CC(=O)N[C@@H](CCc2ccc(C(F)(F)F)c(Cl)c2)C(=O)N2CCC[C@H]2C(=O)NC2(CCCC2)C(=O)N(C)[C@@H](C2CCCCC2)C(=O)N(C)[C@H](C(=O)N2CCCCC2)CC(=O)N1C [Compound 1740] ([NMeNle]I[Sar][Sar][NMeCha][Sar][hPhe(3-Cl-4-CF3)]P[Ac5c][NMeChg][NMeD]-Piperidide; lactam N-11) | 0.79 | 50 to 100 |
